Test results: patent US10085974B2, “Dosage and formulation” (Almirall, S.A., priority 2008, dated 2018)

What was measured:
[1] = tested on: Patients with moderate to severe stable COPD; assay: Tolerability (ECG, laboratory parameters, adverse events) in the 4-week COPD trial; assay type: in vivo, human; conditions: aclidinium 25-400 μg once daily, 4 weeks
Experimental: (§1) Methods: Patients with moderate to severe stable COPD were randomized to receive double-blind, once-daily treatment with aclidinium (25, 50, 100, 200, or 400 μg), placebo, or open-label tiotropium 18 μg for 4 weeks. Spirometric measurements were performed at 22-24 h after the first dose and then at weekly intervals, and from 0.5-6 h post-administration on Day 1 and at Week 4 (Day 29).

[2] = tested on: Patients with moderate to severe stable COPD; assay: Spirometric measurements (FEV1) in a 4-week randomized once-daily trial in COPD patients; assay type: in vivo, human; conditions: for Mean change from baseline in trough FEV1 on Day 29 (Mean Δ): COPD patients
Experimental: as §1

Row | Structure (SMILES) | Effect on ECG, laboratory parameters or adverse events [1] | Tolerability [1] | Mean change from baseline in trough FEV1 on Day 29 (Mean Δ) ([2]; aclidinium 25 μg once daily, double-blind, 4 weeks, inhaled) [mL] | Mean change from baseline in trough FEV1 on Day 29 (Mean Δ) ([2]; aclidinium 50 μg once daily, double-blind, 4 weeks) [mL] | Mean change from baseline in trough FEV1 on Day 29 (Mean Δ) ([2]; aclidinium 100 μg once daily, double-blind, 4 weeks) [mL] | Mean change from baseline in trough FEV1 on Day 29 (Mean Δ) ([2]; aclidinium 200 μg once daily, double-blind, 4 weeks, *p <0.05 vs placebo) | Mean change from baseline in trough FEV1 on Day 29 (Mean Δ) ([2]; aclidinium 400 μg once daily, double-blind, 4 weeks, *p <0.05 vs placebo) | Effect on trough FEV1 on Day 29 ([2]; aclidinium 25-400 μg once daily, 4 weeks) | Bronchodilatory effect compared with open-label tiotropium 18 μg ([2]; aclidinium 200 and 400 μg) | Bronchodilatory effect during the first 6 h post-dose on Day 29 ([2]; all doses, compared with Day 1) | Duration of bronchodilation ([2]; once-daily aclidinium) | Time to peak FEV1 ([2]; post-dose, aclidinium 100-400 μg) [h] | Mean change from baseline in trough FEV1 on Day 29 (Mean Δ) ([2]; tiotropium 18 μg once daily, open-label, 4 weeks, *p <0.05 vs placebo)
1 | O=C(O[C@H]1C[N+]2(CCCOc3ccccc3)CCC1CC2)C(O)(c1cccs1)c1cccs1.[Br-] [Aclidinium, 3(R)-(2-hydroxy-2,2-dithien-2-ylacetoxy)-1-(3-phenoxypropyl)-1-azoniabicyclo[2.2.2]octane bromide] | no dose-dependent effect | well tolerated | 39 | 36 | 83 | 148* ml | 128* ml | dose-dependently increased | comparable bronchodilatory effects | comparable to that on Day 1 | sustained bronchodilation over 24 h | 3 | –
2 | C[N+]1(C)[C@@H]2C[C@@H](OC(=O)C(O)(c3cccs3)c3cccs3)C[C@H]1[C@@H]1O[C@@H]12 [Tiotropium, reference compound] | – | – | – | – | – | – | – | – | – | – | – | – | 161* ml
